In ChEMBL document CHEMBL4507290 (2021):

Legend:
[1] = target: Serine/threonine-protein kinase 32B (Homo sapiens) (UniProt Q9NY57); details: Compound concentration 1000.0 nM
[2] = target: 5-hydroxytryptamine receptor 2B (Homo sapiens) (UniProt P41595); details: Compound concentration 10.0 uM
[3] = target: Cyclin-dependent kinase-like 3 (Homo sapiens) (UniProt Q8IVW4); details: Compound concentration 1000.0 nM
[4] = target: Calcium-dependent protein kinase 1 (Plasmodium falciparum) (UniProt P62344); details: Compound concentration 1000.0 nM
Sequence of Calcium-dependent protein kinase 1 (Plasmodium falciparum) (P62344 2-524 limits assumed): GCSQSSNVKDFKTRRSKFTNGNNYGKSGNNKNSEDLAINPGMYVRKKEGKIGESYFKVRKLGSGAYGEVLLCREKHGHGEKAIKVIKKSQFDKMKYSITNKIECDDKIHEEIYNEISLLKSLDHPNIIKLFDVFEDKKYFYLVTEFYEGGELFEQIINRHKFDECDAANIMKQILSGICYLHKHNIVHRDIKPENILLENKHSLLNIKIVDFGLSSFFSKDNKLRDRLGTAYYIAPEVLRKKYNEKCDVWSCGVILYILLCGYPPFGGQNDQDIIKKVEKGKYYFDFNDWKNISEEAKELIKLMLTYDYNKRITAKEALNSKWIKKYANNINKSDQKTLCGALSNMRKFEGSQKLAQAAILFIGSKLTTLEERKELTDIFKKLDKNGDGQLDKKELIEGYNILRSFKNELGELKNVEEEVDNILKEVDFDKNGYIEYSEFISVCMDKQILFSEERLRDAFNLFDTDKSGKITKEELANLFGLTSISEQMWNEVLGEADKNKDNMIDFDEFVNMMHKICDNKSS

[5] = target: Phosphatidylinositol 4,5-bisphosphate 3-kinase catalytic subunit delta isoform (Homo sapiens) (UniProt O00329); details: Compound concentration 1000.0 nM
[6] = target: 5-hydroxytryptamine receptor 1A (Homo sapiens) (UniProt P08908); details: Compound concentration 10.0 uM
[7] = target: cAMP-dependent protein kinase catalytic subunit alpha (Homo sapiens) (UniProt P17612); details: Compound concentration 1000.0 nM
[8] = target: T1, Sodium-dependent dopamine transporter (Homo sapiens, UniProt Q01959); experiment: GPCRScan assay: inhibition of DAT; set-up: radioligand conc. used [nm] 3.6 – 16.0, parental cells stable HEK
T1 sequence (Q01959 whole entry): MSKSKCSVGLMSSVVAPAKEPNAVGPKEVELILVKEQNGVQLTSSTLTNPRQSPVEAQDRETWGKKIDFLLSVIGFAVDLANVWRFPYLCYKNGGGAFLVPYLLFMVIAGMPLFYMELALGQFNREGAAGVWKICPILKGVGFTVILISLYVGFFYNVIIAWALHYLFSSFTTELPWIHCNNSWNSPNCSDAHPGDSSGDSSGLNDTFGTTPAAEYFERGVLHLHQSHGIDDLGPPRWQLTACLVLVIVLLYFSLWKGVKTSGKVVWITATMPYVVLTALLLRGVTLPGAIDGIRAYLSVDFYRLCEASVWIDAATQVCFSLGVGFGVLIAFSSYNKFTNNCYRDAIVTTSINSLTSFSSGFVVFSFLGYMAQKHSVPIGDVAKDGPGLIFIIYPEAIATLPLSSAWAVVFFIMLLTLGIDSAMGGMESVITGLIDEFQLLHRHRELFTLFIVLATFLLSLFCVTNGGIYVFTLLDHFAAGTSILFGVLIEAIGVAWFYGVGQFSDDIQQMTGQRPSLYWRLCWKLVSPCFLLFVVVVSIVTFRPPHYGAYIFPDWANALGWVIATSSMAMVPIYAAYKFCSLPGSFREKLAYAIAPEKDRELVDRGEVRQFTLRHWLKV

[9] = target: Dual specificity tyrosine-phosphorylation-regulated kinase 2 (Homo sapiens) (UniProt Q92630); details: Compound concentration 1000.0 nM
Sequence of Dual specificity tyrosine-phosphorylation-regulated kinase 2 (Homo sapiens) (Q92630 whole entry): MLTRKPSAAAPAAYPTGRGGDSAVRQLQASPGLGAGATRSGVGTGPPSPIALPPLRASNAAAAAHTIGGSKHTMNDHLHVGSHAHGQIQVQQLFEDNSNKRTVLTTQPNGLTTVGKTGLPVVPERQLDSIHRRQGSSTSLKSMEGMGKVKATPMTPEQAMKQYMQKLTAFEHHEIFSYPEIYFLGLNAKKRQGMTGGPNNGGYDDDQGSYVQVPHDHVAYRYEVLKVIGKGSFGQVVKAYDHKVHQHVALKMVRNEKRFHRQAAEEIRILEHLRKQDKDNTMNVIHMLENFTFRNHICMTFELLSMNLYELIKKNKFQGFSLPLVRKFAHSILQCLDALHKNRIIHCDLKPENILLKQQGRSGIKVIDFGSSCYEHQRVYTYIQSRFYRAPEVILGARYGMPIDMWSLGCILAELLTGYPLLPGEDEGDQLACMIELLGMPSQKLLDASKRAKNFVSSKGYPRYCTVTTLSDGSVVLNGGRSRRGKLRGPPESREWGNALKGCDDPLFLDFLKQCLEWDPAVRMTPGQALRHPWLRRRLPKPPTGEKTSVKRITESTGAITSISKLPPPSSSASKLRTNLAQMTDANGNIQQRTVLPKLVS

[10] = target: Serine/threonine-protein kinase ICK (Homo sapiens) (UniProt Q9UPZ9); details: Compound concentration 1000.0 nM
[11] = target: Alpha-2C adrenergic receptor (Homo sapiens) (UniProt P18825); details: Compound concentration 10.0 uM
[12] = target: MAP kinase-activated protein kinase 5 (Homo sapiens) (UniProt Q8IW41); details: Compound concentration 1000.0 nM
[13] = target: Death-associated protein kinase 1 (Homo sapiens) (UniProt P53355); details: Compound concentration 1000.0 nM
[14] = tested on: Epidermal growth factor receptor (Homo sapiens), P00533 [UNDEFINED MUTATION]; details: Compound concentration 1000.0 nM
[15] = target: Serine/threonine-protein kinase PAK 3 (Homo sapiens) (UniProt O75914); details: Compound concentration 1000.0 nM
[16] = GPCRScan assay: inhibition of GABA/PBR; set-up: species or system Rattus norvegicus; radioligand conc. used [nm] 0.3 – 2.0, parental cells brain tissue
[17] = target: Phosphatidylinositol 4-kinase beta (Homo sapiens) (UniProt Q9UBF8); details: Compound concentration 1000.0 nM
Sequence of Phosphatidylinositol 4-kinase beta (Homo sapiens) (Q9UBF8 2-816 limits assumed): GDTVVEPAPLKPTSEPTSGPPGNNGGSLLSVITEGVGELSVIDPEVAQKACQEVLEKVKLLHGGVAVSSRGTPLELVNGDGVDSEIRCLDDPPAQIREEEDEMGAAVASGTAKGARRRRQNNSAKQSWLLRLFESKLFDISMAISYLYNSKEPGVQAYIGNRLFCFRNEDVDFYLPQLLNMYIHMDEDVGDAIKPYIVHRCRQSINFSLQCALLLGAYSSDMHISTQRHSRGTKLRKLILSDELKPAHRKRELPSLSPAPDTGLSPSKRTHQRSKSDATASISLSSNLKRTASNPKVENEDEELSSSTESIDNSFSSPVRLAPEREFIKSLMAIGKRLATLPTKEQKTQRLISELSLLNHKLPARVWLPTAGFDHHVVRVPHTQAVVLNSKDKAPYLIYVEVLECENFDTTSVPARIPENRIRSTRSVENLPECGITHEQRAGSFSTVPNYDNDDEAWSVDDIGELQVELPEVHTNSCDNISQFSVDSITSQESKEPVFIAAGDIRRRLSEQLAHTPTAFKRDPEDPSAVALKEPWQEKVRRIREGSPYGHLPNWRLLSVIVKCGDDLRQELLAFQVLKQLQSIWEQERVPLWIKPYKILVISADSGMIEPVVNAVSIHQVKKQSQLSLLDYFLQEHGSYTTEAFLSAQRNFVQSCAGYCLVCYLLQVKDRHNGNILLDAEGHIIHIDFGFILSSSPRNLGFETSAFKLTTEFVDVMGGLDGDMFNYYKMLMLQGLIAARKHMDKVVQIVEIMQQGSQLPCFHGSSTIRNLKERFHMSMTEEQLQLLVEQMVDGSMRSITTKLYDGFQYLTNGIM

[18] = target: Phosphatidylinositol 3-kinase catalytic subunit type 3 (Homo sapiens) (UniProt Q8NEB9); details: Compound concentration 1000.0 nM
[19] = target: Tyrosine-protein kinase FRK (Homo sapiens) (UniProt P42685); details: Compound concentration 1000.0 nM
[20] = target: BMP-2-inducible protein kinase (Homo sapiens) (UniProt Q9NSY1); details: Compound concentration 1000.0 nM
[21] = target: Cyclin-dependent kinase 4 (Homo sapiens) (UniProt P11802); details: Compound concentration 1000.0 nM
Sequence of Cyclin-dependent kinase 4 (Homo sapiens) (P11802 whole entry): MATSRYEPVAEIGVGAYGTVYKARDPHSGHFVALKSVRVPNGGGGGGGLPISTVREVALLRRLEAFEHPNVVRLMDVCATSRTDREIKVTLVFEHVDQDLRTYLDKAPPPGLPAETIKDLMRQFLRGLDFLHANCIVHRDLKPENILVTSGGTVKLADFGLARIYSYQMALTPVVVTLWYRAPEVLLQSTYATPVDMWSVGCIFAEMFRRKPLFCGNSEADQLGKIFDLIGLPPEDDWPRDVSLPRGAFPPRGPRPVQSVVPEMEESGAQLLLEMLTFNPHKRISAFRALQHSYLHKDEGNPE

[22] = target: Tyrosine-protein kinase JAK3 (Homo sapiens) (UniProt P52333); details: Compound concentration 1000.0 nM
[23] = target: Angiopoietin-1 receptor (Homo sapiens) (UniProt Q02763); details: Compound concentration 1000.0 nM
[24] = target: Atypical kinase COQ8A, mitochondrial (Homo sapiens) (UniProt Q8NI60); details: Compound concentration 1000.0 nM
Sequence of Atypical kinase COQ8A, mitochondrial (Homo sapiens) (Q8NI60 163-647 limits assumed): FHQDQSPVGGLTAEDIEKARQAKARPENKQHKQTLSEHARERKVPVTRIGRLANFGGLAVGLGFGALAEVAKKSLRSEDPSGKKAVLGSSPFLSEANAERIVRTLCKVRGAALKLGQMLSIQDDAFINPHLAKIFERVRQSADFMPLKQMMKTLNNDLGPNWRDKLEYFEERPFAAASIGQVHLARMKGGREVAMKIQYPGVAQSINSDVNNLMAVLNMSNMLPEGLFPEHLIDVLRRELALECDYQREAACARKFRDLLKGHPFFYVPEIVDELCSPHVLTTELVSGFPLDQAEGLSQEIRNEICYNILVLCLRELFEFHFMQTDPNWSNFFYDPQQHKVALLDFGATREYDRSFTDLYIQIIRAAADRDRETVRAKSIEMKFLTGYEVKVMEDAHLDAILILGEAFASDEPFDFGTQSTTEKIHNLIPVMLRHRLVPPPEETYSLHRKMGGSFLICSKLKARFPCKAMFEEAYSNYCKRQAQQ

[25] = target: Cyclin-dependent kinase 16 (Homo sapiens) (UniProt Q00536); details: Compound concentration 1000.0 nM
[26] = target: cAMP-dependent protein kinase catalytic subunit PRKX (Homo sapiens) (UniProt P51817); details: Compound concentration 1000.0 nM
[27] = target: T1, Sodium-dependent dopamine transporter; details: Compound concentration 10.0 uM
[28] = target: TGF-beta receptor type-1 (Homo sapiens) (UniProt P36897); details: Compound concentration 1000.0 nM
[29] = tested on: Hepatocyte growth factor receptor (Homo sapiens), P08581 [Y1235D]; details: Compound concentration 1000.0 nM
[30] = target: Cyclin-dependent kinase 4 (Homo sapiens) (UniProt P11802); details: Compound concentration 1000.0 nM; remark: listed apart in the source
[31] = target: Tyrosine-protein kinase ZAP-70 (Homo sapiens) (UniProt P43403); details: Compound concentration 1000.0 nM
[32] = target: Death-associated protein kinase 3 (Homo sapiens) (UniProt O43293); details: Compound concentration 1000.0 nM
[33] = target: Kappa-type opioid receptor (Homo sapiens) (UniProt P41145); details: Compound concentration 10.0 uM
[34] = target: Homeodomain-interacting protein kinase 2 (Homo sapiens) (UniProt Q9H2X6); details: Compound concentration 1000.0 nM
[35] = target: Inhibitor of nuclear factor kappa-B kinase subunit alpha (Homo sapiens) (UniProt O15111); details: Compound concentration 1000.0 nM
[36] = target: Serine/threonine-protein kinase MRCK beta (Homo sapiens) (UniProt Q9Y5S2); details: Compound concentration 1000.0 nM
Sequence of Serine/threonine-protein kinase MRCK beta (Homo sapiens) (Q9Y5S2 whole entry): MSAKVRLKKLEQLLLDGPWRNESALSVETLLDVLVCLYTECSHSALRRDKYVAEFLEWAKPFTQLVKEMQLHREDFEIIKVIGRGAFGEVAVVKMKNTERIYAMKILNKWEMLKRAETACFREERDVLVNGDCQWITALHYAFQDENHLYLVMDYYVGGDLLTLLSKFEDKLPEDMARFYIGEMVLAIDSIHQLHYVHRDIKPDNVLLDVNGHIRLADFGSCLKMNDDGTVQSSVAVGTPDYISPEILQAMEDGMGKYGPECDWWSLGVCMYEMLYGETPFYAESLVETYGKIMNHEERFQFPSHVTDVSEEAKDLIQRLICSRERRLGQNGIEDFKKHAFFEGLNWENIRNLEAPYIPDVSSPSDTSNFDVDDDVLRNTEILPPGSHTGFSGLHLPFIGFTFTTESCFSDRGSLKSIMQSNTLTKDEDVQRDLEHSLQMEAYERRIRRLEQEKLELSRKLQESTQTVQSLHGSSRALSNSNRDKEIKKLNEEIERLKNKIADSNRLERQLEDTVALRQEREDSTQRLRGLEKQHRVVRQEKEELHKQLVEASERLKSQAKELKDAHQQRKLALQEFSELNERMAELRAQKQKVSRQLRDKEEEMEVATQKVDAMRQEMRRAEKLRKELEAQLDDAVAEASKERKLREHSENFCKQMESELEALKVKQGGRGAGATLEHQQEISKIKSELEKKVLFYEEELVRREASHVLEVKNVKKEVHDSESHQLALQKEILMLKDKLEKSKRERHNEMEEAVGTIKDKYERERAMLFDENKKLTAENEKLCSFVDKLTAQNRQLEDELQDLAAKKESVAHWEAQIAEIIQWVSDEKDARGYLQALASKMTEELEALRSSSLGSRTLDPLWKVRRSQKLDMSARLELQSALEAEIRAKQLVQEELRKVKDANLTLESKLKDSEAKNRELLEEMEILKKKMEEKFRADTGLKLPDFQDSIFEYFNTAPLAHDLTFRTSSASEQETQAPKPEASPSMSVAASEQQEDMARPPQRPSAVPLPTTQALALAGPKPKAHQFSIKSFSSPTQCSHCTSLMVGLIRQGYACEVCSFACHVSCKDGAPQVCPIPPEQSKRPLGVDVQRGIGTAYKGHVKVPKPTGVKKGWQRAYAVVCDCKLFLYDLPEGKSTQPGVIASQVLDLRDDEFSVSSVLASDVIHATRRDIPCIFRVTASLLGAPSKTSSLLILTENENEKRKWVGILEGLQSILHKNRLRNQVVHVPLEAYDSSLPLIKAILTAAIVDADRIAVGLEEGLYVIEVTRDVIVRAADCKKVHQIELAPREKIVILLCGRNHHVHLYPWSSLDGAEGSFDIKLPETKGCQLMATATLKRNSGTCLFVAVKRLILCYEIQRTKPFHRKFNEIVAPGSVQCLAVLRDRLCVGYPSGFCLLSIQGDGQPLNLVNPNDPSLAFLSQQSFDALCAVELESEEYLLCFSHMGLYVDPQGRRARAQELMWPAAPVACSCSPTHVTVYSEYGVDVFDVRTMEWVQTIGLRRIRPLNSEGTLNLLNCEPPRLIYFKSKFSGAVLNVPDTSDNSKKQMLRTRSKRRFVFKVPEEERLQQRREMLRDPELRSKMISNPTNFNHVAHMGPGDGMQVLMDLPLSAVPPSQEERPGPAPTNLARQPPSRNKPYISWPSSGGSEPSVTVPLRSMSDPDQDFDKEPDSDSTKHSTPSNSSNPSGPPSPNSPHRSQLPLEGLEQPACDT

[37] = target: NUAK family SNF1-like kinase 2 (Homo sapiens) (UniProt Q9H093); details: Compound concentration 1000.0 nM
[38] = tested on: Epidermal growth factor receptor (Homo sapiens), P00533 [L858R,T790M]; details: Compound concentration 1000.0 nM
[39] = target: Serine/threonine-protein kinase B-raf (Homo sapiens) (UniProt P15056); details: Compound concentration 1000.0 nM
[40] = target: Histamine H1 receptor (Homo sapiens) (UniProt P35367); details: Compound concentration 10.0 uM
[41] = tested on: Tyrosine-protein kinase ABL1 (Homo sapiens), P00519 [Q252H]; details: Compound concentration 1000.0 nM
[42] = target: Dual specificity mitogen-activated protein kinase kinase 7 (Homo sapiens) (UniProt O14733); details: Compound concentration 1000.0 nM
[43] = target: Delta-type opioid receptor (Homo sapiens) (UniProt P41143); details: Compound concentration 10.0 uM
[44] = tested on: Tyrosine-protein kinase ABL1 (Homo sapiens), P00519 [T315I]; details: Compound concentration 1000.0 nM
[45] = tested on: Tyrosine-protein kinase ABL1 (Homo sapiens), P00519 [F317L]; details: Compound concentration 1000.0 nM

Row | Structure (SMILES) | residual activity [1] [%] | residual activity [3] [%] | residual activity [4] [%] | residual activity [5] [%] | residual activity [9] [%] | residual activity [10] [%] | residual activity [13] [%] | residual activity [14] [%] | residual activity [15] [%] | residual activity [17] [%] | residual activity [18] [%] | residual activity [19] [%] | residual activity [20] [%] | residual activity [21] [%] | residual activity [22] [%] | residual activity [23] [%] | residual activity [24] [%] | residual activity [25] [%] | residual activity [26] [%] | residual activity [28] [%] | further results
1 | CN([C@@H]1CCc2c(CC(=O)O)c3ccccc3n2C1)S(=O)(=O)c1ccc(F)cc1 [MK-7246] | 100 | 85 | 90 | 95 | 95 | 100 | 100 | 100 | 98 | 100 | 97 | 100 | 100 | 99 | 98 | 92 | 100 | 98 | 100 | 100 | inhibition [2]: -4.07%; inhibition [6]: 15.5%; residual activity [7]: 100%; Ki ([8]; read-out: Ki): 283 nM; Ki ([8]; read-out: pKi (converted)): 316 nM; inhibition [11]: -3.1%; residual activity [12]: 94%; Ki [16]: 1120 nM; pKi [16]: 5.95; inhibition [27]: 77.1%; residual activity [29]: 100%; residual activity [30]: 100%; residual activity [31]: 100%; residual activity [32]: 87%; inhibition [33]: 4.56%; residual activity [34]: 100%; residual activity [35]: 100%; residual activity [36]: 100%; residual activity [37]: 100%; residual activity [38]: 100%
2 | CN([C@@H]1CCc2c(CC(=O)O)c3cc(S(C)(=O)=O)ccc3n2C1)S(=O)(=O)c1ccc(F)cc1 | 100 | 100 | 75 | 100 | 94 | 93 | 100 | 90 | 79 | 98 | 100 | 100 | 98 | 91 | 100 | 88 | 87 | 84 | 100 | 100 | residual activity [39]: 98%; inhibition [40]: -9.04%; residual activity [41]: 98%; residual activity [30]: 93%; residual activity [31]: 100%; residual activity [32]: 97%; residual activity [42]: 100%; residual activity [34]: 100%; inhibition [43]: 20%; residual activity [44]: 88%; residual activity [45]: 90%; residual activity [36]: 100%; residual activity [37]: 87%; residual activity [38]: 100%
